Measured values taken from patent US6525001B1, “Substituted pyrimidine and pyridine herbicides” (Mid-American Commercialization Corporation, priority 1997, dated 2003).

Key:
Experiment in all cases: Test D
Assay type in all cases: in vivo
[1] = tested on: Italian ryegrass (Lolium multiflorum); conditions: POSTEMERGENCE
Procedure: (§1) Compounds evaluated in this test were formulated in a non-phytotoxic solvent mixture which included a surfactant and applied to plants that were in the 1- to 4-leaf stage (postemergence application). A mixture of sandy loam soil and greenhouse potting mix in a 60:40 ratio was used for the postemergence test.
(§2) Plantings of these crops and weed species were adjusted to produce plants of appropriate size for the postemergence test. All plant species were grown using normal greenhouse practices. Crop and weed species include alfalfa (Medicago sativa), annual bluegrass (Poa annua), blackgrass (Alopecurus myosuroides), black nightshade (Solanum nigra), chickweed (Stellaria media), common poppy (Papaver rhoeas), deadnettle (Lamium amplexicaule), downy brome (Bromus tectorum), field violet (Viola arvensis), galium 2 (Galium aparine), green foxtail (Setaria viridis), Italian ryegrass (Lolium multiflorum), jointed goatgrass (Aegilops cylindrica), kochia (Kochia scoparia), lambsquarters (Chenopodium album), lentil (Lens culinaris), littleseed canarygrass (Phalaris minor), pea (Pisum sativum), potato (Solanum tuberosum), rape (Brassica napus), redroot pigweed (Amaranthus retroflexus), Russian thistle (Salsola kali), scentless chamomile (Matricaria inodora), sorghum (Sorghum vulgare), spring barley (Hordeum vulgare), sugar beet (Beta vulgaris), sunflower (Helianthus annuus), ivyleaf speedwell (Veronica hederaefolia), spring wheat (Triticum aestivum), winter wheat (Triticum aestivum), wild buckwheat (Polygonum convolvulus), wild mustard (Sinapis arvensis), wild oat (Avena fatua), windgrass (Apera spica-venti) and winter barley (Hordeum vulgare).
(§3) Treated plants and untreated controls were maintained in a greenhouse for approximately 21 to 28 days, after which all treated plants were compared to untreated controls and visually evaluated. Plant response ratings, summarized in Table D, are based upon a 0 to 100 scale where 0 is no effect and 100 is complete control. A dash response (−) means no test result.

[2] = tested on: annual bluegrass (Poa annua); conditions: POSTEMERGENCE
Procedure: as §1, §2, §3

[3] = tested on: blackgrass (Alopecurus myosuroides); conditions: POSTEMERGENCE
Procedure: as §1, §2, §3

[4] = tested on: downy brome (Bromus tectorum); conditions: POSTEMERGENCE
Procedure: as §1, §2, §3

[5] = tested on: green foxtail (Setaria viridis); conditions: POSTEMERGENCE
Procedure: as §1, §2, §3

[6] = tested on: jointed goatgrass (Aegilops cylindrica); conditions: POSTEMERGENCE
Procedure: as §1, §2, §3

[7] = tested on: littleseed canarygrass (Phalaris minor); conditions: POSTEMERGENCE
Procedure: as §1, §2, §3

[8] = tested on: scentless chamomile (Matricaria inodora); conditions: POSTEMERGENCE
Procedure: as §1, §2, §3

[9] = tested on: spring barley (Hordeum vulgare); conditions: POSTEMERGENCE
Procedure: as §1, §2, §3

[10] = tested on: spring wheat (Triticum aestivum); conditions: POSTEMERGENCE
Procedure: as §1, §2, §3

[11] = tested on: sunflower (Helianthus annuus); conditions: POSTEMERGENCE
Procedure: as §1, §2, §3

wild oat (Avena fatua) = conditions: POSTEMERGENCE
Procedure: as §1, §2, §3

[12] = tested on: windgrass (Apera spica-venti); conditions: POSTEMERGENCE
Procedure: as §1, §2, §3

[13] = tested on: winter barley (Hordeum vulgare); conditions: POSTEMERGENCE
Procedure: as §1, §2, §3

[14] = tested on: winter wheat (Triticum aestivum); conditions: POSTEMERGENCE
Procedure: as §1, §2, §3

[15] = tested on: black nightshade (Solanum nigra); set-up: key: 0 is no effect; 100 is complete control; conditions: POSTEMERGENCE
Procedure: as §1, §2, §3

[16] = tested on: chickweed (Stellaria media); set-up: key: 0 is no effect; 100 is complete control; conditions: POSTEMERGENCE
Procedure: as §1, §2, §3

[17] = tested on: common poppy (Papaver rhoeas); set-up: key: 0 is no effect; 100 is complete control; conditions: POSTEMERGENCE
Procedure: as §1, §2, §3

[18] = tested on: sugar beet (Beta vulgaris); set-up: key: 0 is no effect; 100 is complete control; conditions: POSTEMERGENCE
Procedure: as §1, §2, §3

[19] = tested on: wild mustard (Sinapis arvensis); set-up: key: 0 is no effect; 100 is complete control; conditions: POSTEMERGENCE
Procedure: as §1, §2, §3

[20] = tested on: annual bluegrass (Poa annua); set-up: key: 0 is no effect; 100 is complete control; conditions: PREEMERGENCE
[21] = tested on: common poppy (Papaver rhoeas); set-up: key: 0 is no effect; 100 is complete control; conditions: PREEMERGENCE
[22] = tested on: field violet (Viola arvensis); conditions: PREEMERGENCE

Cc1cnc(-c2ccc(C(F)(F)F)cc2)nc1Cc1cccc(C(F)(F)F)c1 [Example 1, 5-methyl-2-[4-(trifluoromethyl)phenyl]-4-[[3-(trifluoromethyl)phenyl]methyl]pyrimidine]
Plant response rating, I. Ryegrass ([1]; Rate 16 g/ha): 5 | Plant response rating, I. Ryegrass ([1]; Rate 31 g/ha): 10 | Plant response rating, I. Ryegrass ([1]; Rate 62 g/ha): 10 | Plant response rating, I. Ryegrass ([1]; Rate 125 g/ha): 10 | Plant response rating, Annual bluegras ([2]; Rate 16 g/ha): 20 | Plant response rating, Annual bluegras ([2]; Rate 31 g/ha): 50 | Plant response rating, Annual bluegras ([2]; Rate 62 g/ha): 50 | Plant response rating, Blackgrass ([3]; Rate 16 g/ha): 10 | Plant response rating, Blackgrass ([3]; Rate 31 g/ha): 10 | Plant response rating, Blackgrass ([3]; Rate 62 g/ha): 10 | Plant response rating, Blackgrass ([3]; Rate 125 g/ha): 30 | Plant response rating, Downy brome ([4]; Rate 16 g/ha): 2 | Plant response rating, Downy brome ([4]; Rate 31 g/ha): 10 | Plant response rating, Downy brome ([4]; Rate 62 g/ha): 10 | Plant response rating, Downy brome ([4]; Rate 125 g/ha): 10 | Plant response rating, Green foxtail ([5]; Rate 16 g/ha): 5 | Plant response rating, Green foxtail ([5]; Rate 31 g/ha): 10 | Plant response rating, Green foxtail ([5]; Rate 62 g/ha): 20 | Plant response rating, Green foxtail ([5]; Rate 125 g/ha): 20 | Plant response rating, Jointed goatgra ([6]; Rate 16 g/ha): 5 | Plant response rating, Jointed goatgra ([6]; Rate 31 g/ha): 10 | Plant response rating, Jointed goatgra ([6]; Rate 62 g/ha): 10 | Plant response rating, Jointed goatgra ([6]; Rate 125 g/ha): 10 | Plant response rating, LS canarygrass ([7]; Rate 16 g/ha): 10 | Plant response rating, LS canarygrass ([7]; Rate 31 g/ha): 10 | Plant response rating, LS canarygrass ([7]; Rate 62 g/ha): 20 | Plant response rating, LS canarygrass ([7]; Rate 125 g/ha): 20 | Plant response rating, Scentless chamo ([8]; Rate 16 g/ha): 30 | Plant response rating, Scentless chamo ([8]; Rate 31 g/ha): 60 | Plant response rating, Scentless chamo ([8]; Rate 62 g/ha): 60 | Plant response rating, Scentless chamo ([8]; Rate 125 g/ha): 60 | Plant response rating, Spring Barley ([9]; Rate 16 g/ha): 5 | Plant response rating, Spring Barley ([9]; Rate 31 g/ha): 10 | Plant response rating, Spring Barley ([9]; Rate 62 g/ha): 10 | Plant response rating, Spring Barley ([9]; Rate 125 g/ha): 10 | Plant response rating, Spring Wheat ([10]; Rate 16 g/ha): 5 | Plant response rating, Spring Wheat ([10]; Rate 31 g/ha): 10 | Plant response rating, Spring Wheat ([10]; Rate 62 g/ha): 10 | Plant response rating, Spring Wheat ([10]; Rate 125 g/ha): 20 | Plant response rating, Sunflower ([11]; Rate 16 g/ha): 5 | Plant response rating, Sunflower ([11]; Rate 31 g/ha): 10 | Plant response rating, Sunflower ([11]; Rate 62 g/ha): 20 | Plant response rating, Sunflower ([11]; Rate 125 g/ha): 20 | Plant response rating, Wild oat (wild oat (Avena fatua); Rate 16 g/ha): 5 | Plant response rating, Wild oat (wild oat (Avena fatua); Rate 31 g/ha): 20 | Plant response rating, Wild oat (wild oat (Avena fatua); Rate 62 g/ha): 20 | Plant response rating, Wild oat (wild oat (Avena fatua); Rate 125 g/ha): 30 | Plant response rating, Windgrass ([12]; Rate 16 g/ha): 5 | Plant response rating, Windgrass ([12]; Rate 31 g/ha): 20 | Plant response rating, Windgrass ([12]; Rate 125 g/ha): 30 | Plant response rating, Barley (winter) ([13]; Rate 16 g/ha): 5 | Plant response rating, Barley (winter) ([13]; Rate 31 g/ha): 10 | Plant response rating, Barley (winter) ([13]; Rate 62 g/ha): 10 | Plant response rating, Barley (winter) ([13]; Rate 125 g/ha): 10 | Plant response rating, Wheat (winter) ([14]; Rate 16 g/ha): 5 | Plant response rating, Wheat (winter) ([14]; Rate 31 g/ha): 10 | Plant response rating, Wheat (winter) ([14]; Rate 62 g/ha): 10 | Plant response rating, Wheat (winter) ([14]; Rate 125 g/ha): 10 | Plant response rating, Blk nightshade ([15]; Rate 16 g/ha): 60 | Plant response rating, Blk nightshade ([15]; Rate 62 g/ha): 50 | Plant response rating, Blk nightshade ([15]; Rate 125 g/ha): 50 | Plant response rating, Chickweed ([16]; Rate 16 g/ha): 80 | Plant response rating, Chickweed ([16]; Rate 62 g/ha): 80 | Plant response rating, Chickweed ([16]; Rate 125 g/ha): 70 | Plant response rating, Common poppy ([17]; Rate 16 g/ha): 50 | Plant response rating, Common poppy ([17]; Rate 31 g/ha): 100 | Plant response rating, Common poppy ([17]; Rate 62 g/ha): 100 | Plant response rating, Common poppy ([17]; Rate 125 g/ha): 100 | Plant response rating, Sugar beet ([18]; Rate 16 g/ha): 45 | Plant response rating, Sugar beet ([18]; Rate 31 g/ha): 75 | Plant response rating, Sugar beet ([18]; Rate 62 g/ha): 90 | Plant response rating, Sugar beet ([18]; Rate 125 g/ha): 100 | Plant response rating, Wild mustard ([19]; Rate 16 g/ha): 85 | Plant response rating, Wild mustard ([19]; Rate 31 g/ha): 100 | Plant response rating, Wild mustard ([19]; Rate 62 g/ha): 100 | Plant response rating, Wild mustard ([19]; Rate 125 g/ha): 100 | Plant response rating, Annual bluegras ([20]; Rate 31 g/ha): 75 | Plant response rating, Annual bluegras ([20]; Rate 62 g/ha): 60 | Plant response rating, Annual bluegras ([20]; Rate 125 g/ha): 100 | Plant response rating, Annual bluegras ([20]; Rate 250 g/ha): 85 | Plant response rating, Common poppy ([21]; Rate 31 g/ha): 80 | Plant response rating, Common poppy ([21]; Rate 62 g/ha): 100 | Plant response rating, Common poppy ([21]; Rate 125 g/ha): 100 | Plant response rating, Common poppy ([21]; Rate 250 g/ha): 100 | Plant response rating, Field violet ([22]; Rate 31 g/ha): 20 | Plant response rating, Field violet ([22]; Rate 62 g/ha): 70 | Plant response rating, Field violet ([22]; Rate 125 g/ha): 85 | Plant response rating, Field violet ([22]; Rate 250 g/ha): 85
